These results are taken from ChEMBL document CHEMBL1127246, “1,2,5,6-tetrahydropyridine oxime ethers incorporating electron withdrawing groups are potent and selective muscarinic agonists” (Bioorg Med Chem Lett, 1994).

Data set [1] addresses Muscarinic acetylcholine receptor. Put plainly: In vitro binding affinity against Muscarinic receptor in rat cerebral cortex using [3H]- oxotremorine-M (OXO-M) using as a radioligand; Value ranges from 120-180. In kind it is tissue-based.
The target in data set [2] is Muscarinic acetylcholine receptor (Rattus norvegicus) (UniProt P08482+P08483+P08485+P08911+P10980). Put plainly: Selectivity is the ratio of inhibitory activities against muscarinic receptors, determined using radioligand [3H]OXO-M and 3[H}-QND. Type of data set: protein assay.
In data set [3] the target is Muscarinic acetylcholine receptor. Put plainly: In vitro binding affinity against Muscarinic receptor in rat cerebral cortex using [3H]- quinuclidinyl benzilate (QNB)using as a radioligand; Value ranges from 4700-6700. In kind it is tissue-based.
Data set [4] shares this target. Put plainly: In vitro binding affinity against Muscarinic receptor in rat cerebral cortex using [3H]- quinuclidinyl benzilate (QNB)using as a radioligand; Value ranges from 11000-17000. Type of data set: tissue-based.
Data set [5] has the same target. Put plainly: In vitro binding affinity against Muscarinic receptor in rat cerebral cortex using [3H]- oxotremorine-M (OXO-M) using as a radioligand; Value ranges from 2300-3500. Type of data set: tissue-based.
Data set [6] is described as follows: Partition coefficient (logP). In kind it is physicochemical. Particulars: octanol/water.
A short description of data set [7]: pKa value was measured. Type of data set: physicochemical.
For data set [8], the target named is Muscarinic acetylcholine receptor. Kind of data set: In vitro binding affinity against Muscarinic receptor in rat cerebral cortex using [3H]- oxotremorine-M (OXO-M) using as a radioligand; Value ranges from 65-260. Type of data set: tissue-based.
Data set [9] shares this target. Put plainly: In vitro binding affinity against Muscarinic receptor in rat cerebral cortex using [3H]- quinuclidinyl benzilate (QNB)using as a radioligand; Value ranges from 9700-23000. Type of data set: tissue-based.
For data set [10], the system named is Rattus norvegicus. Put plainly: Effective dose causing 50% decrease in mean blood pressure upon intravenous administration in rats. Type of data set: functional.
The subject of data set [11] is Rattus norvegicus. Kind of data set: Dose required to induce a standard increase in rhythmical slow wave activity (RSA) in rats when administered intravenously. In kind it is functional.
Data set [12] is described as follows: Ratio of compound in rat rhythmical slow wave activity assay vs efficacy causing 50% decrease in BP in rats. In kind it is functional.
The target in data set [13] is Muscarinic acetylcholine receptor. Kind of data set: In vitro binding affinity against Muscarinic receptor in rat cerebral cortex using [3H]- oxotremorine-M (OXO-M) using as a radioligand. In kind it is tissue-based.
Data set [14] shares this target. Kind of data set: In vitro binding affinity against Muscarinic receptor in rat cerebral cortex using [3H]- oxotremorine-M (OXO-M) using as a radioligand; Value ranges from 330-620. In kind it is tissue-based.
Data set [15] has the same target. Kind of data set: In vitro binding affinity against Muscarinic receptor in rat cerebral cortex using [3H]- quinuclidinyl benzilate (QNB)using as a radioligand; Value ranges from 8000-8500. Type of data set: tissue-based.
The target is the same in data set [16]. Put plainly: In vitro binding affinity against Muscarinic receptor in rat cerebral cortex using [3H]- quinuclidinyl benzilate (QNB)using as a radioligand; Value ranges from 15000-15000. In kind it is tissue-based.
The target is the same in data set [17]. Put plainly: In vitro binding affinity against Muscarinic receptor in rat cerebral cortex using [3H]- oxotremorine-M (OXO-M) using as a radioligand; Value ranges from 990-1300. In kind it is tissue-based.
Data set [18] shares this target. Put plainly: In vitro binding affinity against Muscarinic receptor in rat cerebral cortex using [3H]- quinuclidinyl benzilate (QNB)using as a radioligand. Type of data set: tissue-based.
For data set [19] the target is unchanged. Put plainly: In vitro binding affinity against Muscarinic receptor in rat cerebral cortex using [3H]- quinuclidinyl benzilate (QNB)using as a radioligand; Value ranges from 1200-1800. In kind it is tissue-based.
The target is the same in data set [20]. Kind of data set: In vitro binding affinity against Muscarinic receptor in rat cerebral cortex using [3H]- oxotremorine-M (OXO-M) using as a radioligand; Value ranges from 23-35. In kind it is tissue-based.
For data set [21] the target is unchanged. Kind of data set: In vitro binding affinity against Muscarinic receptor in rat cerebral cortex using [3H]- oxotremorine-M (OXO-M) using as a radioligand; Value ranges from 240-290. In kind it is tissue-based.
Data set [22] shares this target. Kind of data set: In vitro binding affinity against Muscarinic receptor in rat cerebral cortex using [3H]- quinuclidinyl benzilate (QNB)using as a radioligand; Value ranges from 2100-2300. Type of data set: tissue-based.
Data set [23] shares this target. Kind of data set: In vitro binding affinity against Muscarinic receptor in rat cerebral cortex using [3H]- oxotremorine-M (OXO-M) using as a radioligand; Value ranges from 120-220. Type of data set: tissue-based.
For data set [24] the target is unchanged. Kind of data set: In vitro binding affinity against Muscarinic receptor in rat cerebral cortex using [3H]- quinuclidinyl benzilate (QNB)using as a radioligand; Value ranges from 4300-9500. In kind it is tissue-based.
Data set [25] shares this target. Put plainly: In vitro binding affinity against Muscarinic receptor in rat cerebral cortex using [3H]- quinuclidinyl benzilate (QNB)using as a radioligand; Value ranges from 1500-7200. Type of data set: tissue-based.
For data set [26] the target is unchanged. Put plainly: In vitro binding affinity against Muscarinic receptor in rat cerebral cortex using [3H]- oxotremorine-M (OXO-M) using as a radioligand; Value ranges from 28-58. Type of data set: tissue-based.
Data set [27] shares this target. Kind of data set: In vitro binding affinity against Muscarinic receptor in rat cerebral cortex using [3H]- oxotremorine-M (OXO-M) using as a radioligand; Value ranges from 840-1200. In kind it is tissue-based.
Data set [28] has the same target. Put plainly: In vitro binding affinity against Muscarinic receptor in rat cerebral cortex using [3H]- quinuclidinyl benzilate (QNB)using as a radioligand; Value ranges from 9100-9600. Type of data set: tissue-based.
For data set [29] the target is unchanged. Put plainly: In vitro binding affinity against Muscarinic receptor in rat cerebral cortex using [3H]- quinuclidinyl benzilate (QNB)using as a radioligand; Value ranges from 18000-23000. In kind it is tissue-based.
The target is the same in data set [30]. Kind of data set: In vitro binding affinity against Muscarinic receptor in rat cerebral cortex using [3H]- oxotremorine-M (OXO-M) using as a radioligand; Value ranges from 46-110. In kind it is tissue-based.

Each structure is given as a SMILES string. A value given as a limit tells only on which side of the number the result lay.

As for `CO/N=C(\Cl)C1=CCCNC1`, the figures for the IC50 in data set [1] and in data set [3] were 0.15 µM and 5.6 µM, respectively. Further, the Ratio in [2] was determined as 37.

As for `CON=C(C1=CCCN(C)C1)C(F)(F)F`, the results for the IC50 in data set [4] and in [5] were 13 µM and 2.8 µM, respectively. In data set [2], the Ratio came out at 5.

For `CO/N=C/C1=CCCN(C)C1` [MILAMELINE], in data set [6], the logP (in general, the decadic logarithm of the partition coefficient of the neutral form, usually between octanol and water) was 1.45. In addition, the pKa – broadly, the negative logarithm of the acid dissociation constant – in [7] worked out at 8.21. Further, the IC50 (as a rule, the concentration that gives 50% inhibition) came to 0.11 µM in data set [8] and 14 µM in [9]. Besides, the ED50 (as a rule, the dose at which the effect has come halfway, by size or by number of responders) with Rattus norvegicus [10] worked out at 0.15 mg/kg. Besides, in the data set with Rattus norvegicus [11], the “ED Arec” value was found to be 0.15 mg/kg. Moreover, the Ratio was found to be 1 in [12] and 130 in data set [2].

In turn, `CO/N=C(\C1=CCCN(C)C1)C(F)(F)F` showed an IC50 in data set [13] of 11 µM.

On to `CO/N=C(\C#N)C1CN2CCC1CC2` (stereo not given), for which the values for the Ratio in data set [12] and in data set [2] were over 10.8 and 14, respectively.

Turning to `CO/N=C(\CF)C1=CCCN(C)C1`, the IC50 worked out at 0.45 µM in [14] and 8.3 µM in data set [15]. Moreover, in data set [2], the Ratio amounted to 18.

As for `CO/N=C(/C1=CCCN(C)C1)C(F)F`, the IC50 in data set [16] worked out at 15 µM; in [17] it was 1.1 µM. Besides, the Ratio in [2] is 14.

On to `CO/N=C(\CF)C1=CCCNC1`, for which the concentration for half-maximal inhibition (IC50) is 0.42 µM in data set [13] and 17 µM in data set [18]. In addition, the Ratio in data set [2] is 40.

On to `CO/N=C(\C#N)C1=CCCNC1`, for which, in data set [6], the logP came to 1.41. This molecule gave a pKa in [7] of 8.6. Also, the IC50 in data set [19] stood at 1.5 µM; in [20], 0.028 µM. Besides, in the data set on Rattus norvegicus [10], the ED50 was over 0.32 mg/kg. Also, the “ED Arec” value with Rattus norvegicus [11] is 0.032 mg/kg. The Ratio in data set [12] is over 10; in data set [2], 54.

Consider `CO/N=C(\Cl)C1=CCCN(C)C1`, for which the IC50 was found to be 2.8 µM in [18] and 0.26 µM in [21]. In [2], the Ratio is 11.

In turn, `CO/N=C(\F)C1CN2CCC1CC2` (stereo not given) had an IC50 in data set [22] of 2.2 µM. Moreover, the Ratio in data set [2] amounted to 65.

Molecule `CO/N=C(\C#N)C1=CCCN(C)C1` registered a logP in data set [6] of 1.76. The pKa in data set [7] stood at 7.65. The results for the IC50 in [23] and in [24] were 0.15 µM and 4.5 µM, respectively. The same molecule registered an ED50 in the data set with Rattus norvegicus [10] of over 1 mg/kg. In addition, the “ED Arec” value with Rattus norvegicus [11] was 0.16 mg/kg. Also, the Ratio is over 6.3 in [12] and 30 in data set [2].

Regarding `CO/N=C(\F)C1=CCCN(C)C1`, in data set [6], the logP turned out to be 1.48. Moreover, the pKa in [7] was determined as 7.39. Moreover, the IC50 worked out at 4 µM in data set [25] and 0.039 µM in data set [26]. This molecule also showed an ED50 in the data set with Rattus norvegicus [10] of 0.04 mg/kg. The “ED Arec” value with Rattus norvegicus [11] is 0.054 mg/kg. Also, the values for the Ratio in data set [12] and in data set [2] were 0.74 and 100, respectively.

Consider `CCN1CCC=C(/C(C#N)=N/OC)C1`, for which the IC50 stood at 1 µM in [27] and 9.4 µM in data set [28]. Besides, in [2], the Ratio was 9.

Consider `CO/N=C(\Cl)C1CN2CCC1CC2` (stereo not given), for which the Ratio in data set [2] stood at 16.

`CO/N=C(\F)C1=CCCNC1`: the IC50 in data set [13] turned out to be 0.041 µM; in data set [18], 2.9 µM. For the same molecule, the Ratio in [2] is 70.

`CO/N=C/C1=CCCNC1` came in with a lipophilicity (logP) in data set [6] of 1.01. Further, in data set [7], the pKa is 9.18. In addition, the IC50 in data set [29] stood at 20 µM; in data set [30] it was 0.071 µM. In the data set with Rattus norvegicus [10], this molecule had an ED50 of 0.067 mg/kg. Further, in the data set with Rattus norvegicus [11], the “ED Arec” value came to 0.019 mg/kg. In addition, the results for the Ratio in data set [12] and in data set [2] were 3.5 and 280, respectively.
